Data as given in patent US10071954B2, “Hydrogen peroxide-activated compounds as selective anti-cancer therapeutics” (University of Cincinnati, priority 2014, dated 2018).
Read-outs that look alike come from different tables or passages of the source.

Assays:
[1] = Oxidation of compound 1 to 2 in PBS, HPLC analysis; format: physicochemical
Protocol: To mimic cellular addition, 1 was incubated in PBS with limiting N-acetylcysteine and the products were analyzed by HPLC (FIG. 3C). The limiting N-acetylcysteine was necessary due to the formation of multiple addition products, since addition of a thiol to the aromatic ring makes further oxidation and addition easier. Compound 1 was converted to 2 in the absence of exogenous oxidant at a rate of 0.011±0.002 min^−1 (FIG. 3D, grey line), which leads to approximately 50% conversion in one hour. ROS-induced activation of 1 was then assessed. In the presence of 10 mM H2O2, a ten-fold excess, the rate of conversion was enhanced by […] to 0.6±0.1 min^−1. Once 2 was formed, N-acetylcysteine was added and NAC-2 was rapidly produced (FIG. 3C, black line) as confirmed by FTMS (FIG. 3E).

MA9.3RAS AML cells = test: MTT cytotoxicity assay in MA9.3RAS AML cells; format: cell-based, human
Protocol: (§1) Cells were seeded at a density of 4×10^4 cells/well in a 96-well plate and incubated at 37° C. overnight. Then cells were treated for 48 hours with indicated concentrations of freshly dissolved compounds. The plates were centrifuged at 1500×g for 5 minutes at 4° C. to pellet the cells and the medium containing compounds was discarded; fresh medium containing 20 μL of MTT (5 mg/mL) was added to each well and incubated for an additional 4 h. The medium was removed. After adding 200 μL of DMSO to each well, the optical densities at 575 nm were determined. Cytotoxicity data are expressed as IC50 values obtained from the fit to a four parameter sigmoid using the graphing software KaleidaGraph (Synergy Software). All R^2 values were greater than 0.98 and standard errors of the three replicates were less than 20%.
Structural components within 1 were then probed to determine effect on potency. The goal was to obtain activity that matched the two natural products, PTL and PLG, which show efficacy in tumor xenografts in mice. As a model system cytotoxicity of synthesized agents in the MA9.3RAS AML cell line was examined. These cells are transformed CD34^+ human blood stem cells engineered to express both an MLL-AF9 fusion protein and the common oncogene NrasG12D. Culturing was accomplished as previously described by Wunderlich, et al., Leukemia 24(10):1785-88 (2010). The molecular signatures associated with these cells closely mimic those identified in primary AML patient samples and the MLL-fusion is associated with poor survival. Cytotoxicity studies were performed in triplicates using an MTT cell proliferation assay. All MTT assays were repeated twice.

[2] = tested on: CD34+ normal human blood stem cells vs MA9.3RAS AML cells; test: Selectivity factor: ratio of IC50 of normal cells over IC50 of AML cells; format: cell-based; settings: for selectivity factor (ratio of IC50 of normal cells over IC50 of AML cells): CD34+ normal human blood stem cells / MA9.3RAS AML cells
Source text: (§2) The selectivity of select compounds was examined by treatment of primary CD34^+ normal human blood stem cells. These are untransformed and are genetically similar to MA9.3RAS cells except they lack the MLL-AF9 oncogene and active Nras^G12D oncogene. It is essential that reactive agents be selective since off-target reactivity is of great concern. In anti-cancer compounds, a selectivity factor, which in this instance is the ratio between the IC50 of normal cells over the IC50 of the AML cells, of one log unit is desired. Compound 1 is marginally selective with a ratio of 2.0±0.2. […] Conversion of the aniline to an alkyl amine led to improved selectivity.

[3] = tested on: CD34+ selected human umbilical cord blood cells (UCB); test: MTT cytotoxicity assay in CD34+ selected umbilical cord blood cells (normal blood stem cells); format: cell-based; settings: for IC50: CD34+ selected human umbilical cord blood cells, 48 hours treatment, MTT, read-out: IC50 against UCB
Protocol: as §1, §2

[4] = tested on: A_MA9 + Nras (Individual 1 transformed with MLL-AF9 and NrasG12D); test: IC50 panel, A_MA9 + Nras; format: cell-based
Source text: (§3) Selectivity of compound 14 was examined by measuring IC50 against a variety of cell types, including AML cells obtained from individuals as well as common cell lines and healthy untransformed cells.

[5] = tested on: A_MA9 + FLT3 (Individual 1 transformed with MLL-AF9 and FLT3-ITD); test: IC50 panel, A_MA9 + FLT3; format: cell-based
Source text: as §3

[6] = tested on: A_MA9 (Individual 1 transformed with MLL-AF9 fusion); test: IC50 panel, A_MA9; format: cell-based
Source text: as §3

[7] = tested on: UT (healthy untransformed cells); test: IC50 panel, healthy untransformed cells; format: cell-based
Source text: as §3

[8] = tested on: Kasumi1 (common AML cell line); test: IC50 panel, Kasumi1; format: cell-based; settings: Homo sapiens, Kasumi 1
Source text: as §3

AML cells = test: Cellular ROS level by DCF fluorescence assay; format: cell-based
Protocol: Though it is widely accepted that bulk AML cells have elevated concentrations of reactive oxygen, it was desirable to ensure that the instant models had higher levels of ROS than healthy cells. CD34+ blood stem cells were harvested from three donors. Cells were counted, incubated with 2,7-dihydrodichlorofluorescein (DCF) diacetate, and their respective fluorescence compared after 30 min (FIG. 7). After deacylation, DCF is oxidized by a broad spectrum of ROS species and oxidases. Thus is a marker of general ROS and oxidation within cells. The three CD34+ selected UCB cell populations each derived from different healthy donors referred as #1 through #3 (FIG. 7) had fluorescence intensity of 0.69±0.03 (p<0.002), 0.60±0.03 (p<10^−6), 0.54±0.02 (p<10^−6) compared to 1.00±0.02 in the AML cell model.
In order for 14 to be ROS-activatable, it needs to enter a cell and react with hydrogen peroxide, thereby lowering a cell's total ROS level as measured by DCF fluorescence (FIG. 8A). It should be noted that because 14 is highly lethal, concentrations ten-fold higher than the IC50 are required to lower a cell's ROS level. […] Similar experiments lacking addition of 14 show statistically significant increases in fluorescence intensities (p<0.001 for all time points while pretreated data set was not statistically significant from each other) with the endpoint having an intensity of 5.02±0.08.

[9] = Oxidation of compound 14, HPLC analysis; format: physicochemical
Protocol: These products were produced via both spontaneous and hydrogen-peroxide induced oxidation but not under an argon atmosphere (FIG. 4C right hand side). […] Importantly, addition of one molar equivalent hydrogen peroxide led to a near instantaneous conversion to the oxidized products. Using the lower limit of t1/2 less than 1 min leads to a large rate enhancement. Initially, the two products were isolated and a high-resolution MS was obtained on both. […] Several tautomers of 14-ox are possible (see FIG. 5A).

[10] = tested on: B_MA9 (Individual 2 transformed with MLL-AF9); test: IC50 panel, B_MA9; format: cell-based
Source text: as §3

KEAP1 = test: Western blot against KEAP1 normalized to beta-actin; format: cell-based; settings: AML cells
Protocol: Finally, reactivity of 14 in a cell was examined (FIG. 8B). To accomplish this, western blot against KEAP1, normalized to beta-actin was performed. KEAP1 is a signaling molecule that inhibits NRF2^25, the transcription factor that regulates anti-oxidant concentrations in cells.

[11] = tested on: HL60 (common AML cell line); test: IC50 panel, HL60; format: cell-based; settings: Homo sapiens, HL-60
Source text: as §3

[12] = tested on: B_MA9 + FLT3 (Individual 2 transformed with MLL-AF9 and FLT3-ITD); test: IC50 panel, B_MA9 + FLT3; format: cell-based
Source text: as §3

[13] = tested on: MOLM13 (common AML cell line); test: IC50 panel, MOLM13; format: cell-based; settings: Homo sapiens, MOLM-13
Source text: as §3

[14] = tested on: B_MA9 + Nras (Individual 2 transformed with MLL-AF9 and NrasG12D); test: IC50 panel, B_MA9 + Nras; format: cell-based
Source text: as §3

[15] = Homo sapiens, MA9.3RAS AML cell line, MTT cell proliferation assay (Table 2 and text), read-out: IC50
[16] = Homo sapiens, MA9.3RAS, MA9.3 AML cells, MTT assay (Table 3), read-out: IC50

CN(CC(=O)Nc1cc(O)ccc1O)c1ccccc1 [Compound 1]
rate of conversion of 1 to 2 ([1]; PBS, absence of exogenous oxidant): 0.011 ± 0.002 min⁻¹ | conversion of 1 to 2 in one hour ([1]; absence of exogenous oxidant): approximately 50% | rate of conversion of 1 to 2 ([1]; presence of 10 mM H2O2, ten-fold excess): 0.6 ± 0.1 min⁻¹ | rate of conversion of 1 into 2 ([1]; with hydrogen peroxide (FIG. 3D legend)): 0.6 min⁻¹

CN(CC(=O)NC1=CC(=O)C=CC1=O)c1ccccc1 [Compound 2]
IC50 (MA9.3RAS AML cells; [15]): 21 ± 4 µM

COc1ccc(OC)c(NC(=O)CN(C)c2ccccc2)c1 [Compound 3]
IC50 (MA9.3RAS AML cells; [15]): > 100 µM

CN(CC(=O)Nc1ccccc1O)c1ccccc1 [Compound 4]
IC50 (MA9.3RAS AML cells; [15]): > 100 µM

CN(CC(=O)Nc1cccc(O)c1)c1ccccc1 [Compound 5]
IC50 (MA9.3RAS AML cells; [15]): > 100 µM

CC(=O)Nc1cc(O)ccc1O [Compound 6]
selectivity factor (ratio of IC50 of normal cells over IC50 of AML cells) [2]: Neither compound 6 nor compound 7 were selective | IC50 (MA9.3RAS AML cells; [15]): 35 ± 5 µM

NC1=CC(=O)C=CC1=O [Compound 7]
selectivity factor (ratio of IC50 of normal cells over IC50 of AML cells) [2]: Neither compound 6 nor compound 7 were selective | IC50 (MA9.3RAS AML cells; [15]): 16 ± 2 µM

O=C(CO)Nc1cc(O)ccc1O [Compound 8]
IC50 (MA9.3RAS AML cells; [15]): 12 ± 3 µM

O=C(CNc1ccccc1)Nc1cc(O)ccc1O [Compound 9]
IC50 (MA9.3RAS AML cells; [15]): 13 ± 2 µM

O=C(COc1ccccc1)Nc1cc(O)ccc1O [Compound 10]
selectivity factor (ratio of IC50 of normal cells over IC50 of AML cells) [2]: limited selectivity

O=C(CSc1ccccc1)Nc1cc(O)ccc1O [Compound 11]
selectivity factor (ratio of IC50 of normal cells over IC50 of AML cells) [2]: limited selectivity

CCCN(C)CC(=O)Nc1cc(O)ccc1O [Compound 12]
IC50 (MA9.3RAS AML cells; [15]): 18 ± 2 µM

O=C(CNC1CCCCC1)Nc1cc(O)ccc1O [Compound 14, 2-(cyclohexylamino)-N-(2,5-dihydroxyphenyl)acetamide]
IC50 [3]: 20 ± 2 µM | viability of normal blood stem cells, in words ([3]; concentration that eradicated AML cells, FIG. 6B): did not affect viability | IC50 [4]: 2300 ± 80 nM | IC50 [5]: 1800 ± 70 nM | IC50 [6]: 4 ± 0.7 µM | selectivity ([2]; AML cells vs normal blood stem cells): 11 fold | IC50 [7]: 22 ± 2 µM | viability of AML cells, in words (MA9.3RAS AML cells; FIG. 6B): eradicated | IC50 (MA9.3RAS AML cells; [15]): 2 µM | IC50 [8]: 19 ± 3 µM | cellular ROS levels (DCF fluorescence), in words (AML cells; 20 μM, AML cells): time dependent loss in cellular ROS levels | DCF fluorescence intensity at endpoint (AML cells; AML cells treated with 14, end of time course, without 14 5.02±0.08): 4.31±0.08 | DCF fluorescence intensity at addition of 14 (AML cells; AML cells, start of time course): 1.06±0.13 | activation by hydrogen peroxide [9]: more than 150 fold | time for complete conversion of 14 ([9]; hydrogen peroxide (FIG. 4C legend)): less than 0.1 hours | t1/2 of oxidation ([9]; normal atmosphere, pseudo-zero order kinetics): 155 ± 13 min | t1/2 of oxidation ([9]; one molar equivalent hydrogen peroxide): less than 1 min | fraction of 14 converted to its oxidation product ([9]; two hours under argon atmosphere): 4±3% | IC50 [10]: 3.7 ± 0.1 µM | KEAP1 level, in words (KEAP1; 2 μM): statistically significant reduction in KEAP1 | relative concentration of KEAP1 (KEAP1 to ACTB) (KEAP1; after 24 hrs): 0.65±0.09 | IC50 [11]: 4 µM | IC50 [12]: 1600 ± 100 nM | IC50 [13]: 6 ± 1 µM | IC50 [14]: 2500 ± 30 nM

Nc1ccc(O)c(NC(=O)CNC2CCCCC2)c1 [Compound 16, N-(5-amino-2-hydroxyphenyl)-2-(cyclohexylamino)acetamide]
IC50 [3]: 55 ± 4 µM | IC50 (MA9.3RAS AML cells; Homo sapiens, MA9.3RAS, 48 hours treatment, MTT, read-out: IC50 against MA9.3RAS AML cells): 3 ± 1 µM | IC50 (MA9.3RAS AML cells; [16]): 5 ± 2 µM

O=C(CNC1CCCCC1)Nc1cc([N+](=O)[O-])ccc1O [Compound 17]
IC50 (MA9.3RAS AML cells; [16]): 22 ± 7 µM

C[C@@H](NC1CCCCC1)C(=O)Nc1cc(O)ccc1O [Compound 18]
IC50 (MA9.3RAS AML cells; [16]): 104 ± 2 µM

O=C(Nc1cc(O)ccc1O)C(NC1CCCCC1)C1CCCCC1 (stereo not shown) [Compound 19]
IC50 (MA9.3RAS AML cells; [16]): 107 ± 1 µM

COc1cc(/C=C/C(=O)N2CCC=CC2=O)cc(OC)c1OC [PLG, piperlongumine, reference compound]
selectivity factor (ratio of IC50 of normal cells over IC50 of AML cells) [2]: 3.7±1 | IC50 (MA9.3RAS AML cells; [15]): 2 ± 1 µM

parthenolide [PTL, reference compound]
selectivity factor (ratio of IC50 of normal cells over IC50 of AML cells) [2]: 2.1±0.4 | IC50 (MA9.3RAS AML cells; MA9.3RAS AML cell line, MTT cell proliferation assay (Table 2 and text), read-out: IC50): 3 ± 1 µM
